Data: BigSolDB 2.1

O=C(O)CNCc1ccccc1
solubility (mole fraction)
Settings	283.15 K	288.15 K	293.15 K	298.15 K	303.15 K	313.15 K	323.15 K
in 1,4-dioxane	3.3e-05	–	5.5e-05	–	8.4e-05	0.00015	0.000211
in acetone	7.1e-05	–	9.4e-05	–	0.000133	0.000165	0.00024
in acetonitrile	5e-06	–	1.1e-05	–	1.7e-05	2.8e-05	4e-05
in dichloromethane	9e-06	2.1e-05	3.4e-05	4.2e-05	5.7e-05	–	–
in ethanol	0.000222	–	0.000326	–	0.00043	0.000526	0.000709
in ethyl acetate	1.1e-05	–	3.3e-05	–	6.7e-05	0.000102	0.000173
in isopropanol	6e-05	–	8e-05	–	9.6e-05	0.00012	0.000173
in methanol	0.00217	–	0.00269	–	0.00335	0.00416	0.0053
in n-butanol	0.000166	–	0.000203	–	0.000262	0.000338	0.000397
in n-propanol	0.000214	–	0.000266	–	0.000306	0.00037	0.000456
in water	0.00909	–	0.0113	–	0.014	0.0169	0.0214
